Laboratory results: US8399502B2, “Analogs of indole-3-carbinol and their use as agents against infection” (priority 2008, dated 2013)
≈ marks a conversion by molar mass, not a printed value.

Experiments:
Assay in all cases: microbe, parasite or virus in culture
Type in all cases: cell-based
[1] = tested on: Francisella tularensis (FT; Gram-negative); conditions: read-out: MIC FT
[2] = tested on: Bacillus anthracis (BA; Gram-positive); conditions: read-out: MIC BA
[3] = tested on: Yersinia pestis (YP; Gram-negative); conditions: read-out: MIC YP
[4] = tested on: Brucella abortus (BAB; Gram-negative); conditions: read-out: MIC BAB
[5] = tested on: Burkholderia mallei (BM; Gram-negative); conditions: read-out: MIC BM
[6] = tested on: Burkholderia pseudomallei (BP; Gram-negative); conditions: read-out: MIC BP
[7] = tested on: methicillin-susceptible Staphylococcus aureus (MSSA); conditions: read-out: MIC MSSA
[8] = tested on: methicillin-resistant Staphylococcus aureus (MRSA); conditions: read-out: MIC MRSA
[9] = tested on: penicillin-susceptible S. pneumoniae (PSSP); conditions: Streptococcus pneumoniae, read-out: MIC PSSP
[10] = tested on: penicillin-resistant S. pneumoniae (PRSP); conditions: Streptococcus pneumoniae, read-out: MIC PRSP

## CNCCOc1c2[nH]c3ccc(F)cc3c2cc2c1[nH]c1ccc(F)cc12
[1]
  MIC: 0.5 µg/mL (≈ 1.37 µM)
[2]
  MIC: 1 µg/mL (≈ 2.74 µM)
[3]
  MIC: 8 µg/mL (≈ 21.9 µM)
[4]
  MIC: 0.5 µg/mL (≈ 1.37 µM)
[5]
  MIC: 4 µg/mL (≈ 10.9 µM)
[6]
  MIC: 16 µg/mL (≈ 43.8 µM)

## N[C@H]1CCN(CCCOc2c3[nH]c4ccc(Cl)cc4c3cc3c2[nH]c2ccc(Cl)cc23)C1
[1]
  MIC: 0.5 µg/mL (≈ 1.07 µM)
[2]
  MIC: 0.5 µg/mL (≈ 1.07 µM)
[3]
  MIC: 2 µg/mL (≈ 4.28 µM)
[4]
  MIC: 0.25 µg/mL (≈ 0.535 µM)
[5]
  MIC: > 8 µg/mL
[6]
  MIC: > 8 µg/mL

## C[N+](C)(C)CCOc1c2[nH]c3ccc(F)cc3c2cc2c1[nH]c1ccc(F)cc12.[I-]
[1]
  MIC: 1 µg/mL
[2]
  MIC: 0.5 µg/mL
[3]
  MIC: > 8 µg/mL
[4]
  MIC: 2 µg/mL
[5]
  MIC: 8 µg/mL
[6]
  MIC: 8 µg/mL

## Nc1nnn(CCCOc2c3[nH]c4ccc(Cl)cc4c3cc3c2[nH]c2ccc(Cl)cc23)n1
[1]
  MIC: 1 µg/mL (≈ 2.14 µM)
[2]
  MIC: 0.5 µg/mL (≈ 1.07 µM)
[3]
  MIC: > 8 µg/mL
[4]
  MIC: 1 µg/mL (≈ 2.14 µM)
[5]
  MIC: > 8 µg/mL
[6]
  MIC: > 8 µg/mL

## Nc1nnnn1CCCOc1c2[nH]c3ccc(Cl)cc3c2cc2c1[nH]c1ccc(Cl)cc12
[1]
  MIC: 1 µg/mL (≈ 2.14 µM)
[2]
  MIC: 0.5 µg/mL (≈ 1.07 µM)
[3]
  MIC: > 8 µg/mL
[4]
  MIC: 0.5 µg/mL (≈ 1.07 µM)
[5]
  MIC: > 8 µg/mL
[6]
  MIC: > 8 µg/mL

## Nc1nc(N)n(CCCOc2c3[nH]c4ccc(Cl)cc4c3cc3c2[nH]c2ccc(Cl)cc23)n1
[1]
  MIC: 1 µg/mL (≈ 2.08 µM)
[2]
  MIC: 0.5 to 1 µg/mL (≈ 1.04 to 2.08 µM)
[3]
  MIC: 8 µg/mL (≈ 16.7 µM)
[4]
  MIC: 1 µg/mL (≈ 2.08 µM)
[5]
  MIC: > 8 µg/mL
[6]
  MIC: > 8 µg/mL

## Clc1ccc2[nH]c3c(OC4CCNC4)c4[nH]c5ccc(Cl)cc5c4cc3c2c1 (stereo not drawn)
[1]
  MIC: 0.25 to 1 µg/mL (≈ 0.609 to 2.44 µM)
[2]
  MIC: 0.5 to 1 µg/mL (≈ 1.22 to 2.44 µM)
[3]
  MIC: 1 µg/mL (≈ 2.44 µM)
[4]
  MIC: 0.25 µg/mL (≈ 0.609 µM)
[5]
  MIC: 2 µg/mL (≈ 4.87 µM)
[6]
  MIC: 4 µg/mL (≈ 9.75 µM)

## Clc1ccc2[nH]c3c(OCCCc4nnn[nH]4)c4[nH]c5ccc(Cl)cc5c4cc3c2c1
[1]
  MIC: 1 µg/mL (≈ 2.22 µM)
[2]
  MIC: 0.5 µg/mL (≈ 1.11 µM)
[3]
  MIC: > 8 µg/mL
[4]
  MIC: 1 µg/mL (≈ 2.22 µM)
[5]
  MIC: > 8 µg/mL
[6]
  MIC: > 8 µg/mL

## Nc1nnc(N)n1CCCOc1c2[nH]c3ccc(Cl)cc3c2cc2c1[nH]c1ccc(Cl)cc12
[1]
  MIC: 1 µg/mL (≈ 2.08 µM)
[2]
  MIC: 1 µg/mL (≈ 2.08 µM)
[3]
  MIC: 4 µg/mL (≈ 8.33 µM)
[4]
  MIC: 1 µg/mL (≈ 2.08 µM)
[5]
  MIC: > 8 µg/mL
[6]
  MIC: > 8 µg/mL

## OC1CCN(CCOc2c3[nH]c4ccc(F)cc4c3cc3c2[nH]c2ccc(F)cc23)CC1
[1]
  MIC: 0.5 µg/mL (≈ 1.15 µM)
[2]
  MIC: 0.5 µg/mL (≈ 1.15 µM)
[3]
  MIC: 4 µg/mL (≈ 9.19 µM)
[4]
  MIC: 1 µg/mL (≈ 2.3 µM)
[5]
  MIC: 8 µg/mL (≈ 18.4 µM)
[6]
  MIC: > 8 µg/mL

## CN(C)CCOc1c2[nH]c3cc(F)ccc3c2cc2c1[nH]c1cc(F)ccc12
[1]
  MIC: 0.5 µg/mL (≈ 1.32 µM)
[2]
  MIC: 1 µg/mL (≈ 2.64 µM)
[3]
  MIC: > 8 µg/mL
[4]
  MIC: 0.5 µg/mL (≈ 1.32 µM)
[5]
  MIC: > 8 µg/mL
[6]
  MIC: > 8 µg/mL

## CCOC(=O)c1ccc2[nH]c3c(OCCN)c4[nH]c5ccc(C(=O)OCC)cc5c4cc3c2c1
[1]
  MIC: 1 µg/mL (≈ 2.18 µM)
[2]
  MIC: 2 µg/mL (≈ 4.35 µM)
[3]
  MIC: > 8 µg/mL
[4]
  MIC: 1 µg/mL (≈ 2.18 µM)
[5]
  MIC: > 8 µg/mL
[6]
  MIC: > 8 µg/mL

## Fc1ccc2[nH]c3c(OC4CCNCC4)c4[nH]c5ccc(F)cc5c4cc3c2c1
[1]
  MIC: ≤ 0.25 µg/mL
[2]
  MIC: ≤ 0.25 µg/mL
[3]
  MIC: 8 µg/mL (≈ 20.4 µM)
[4]
  MIC: ≤ 0.25 µg/mL
[5]
  MIC: 4 µg/mL (≈ 10.2 µM)
[6]
  MIC: 8 µg/mL (≈ 20.4 µM)

## Clc1ccc2[nH]c3c(OCC4CCNCC4)c4[nH]c5ccc(Cl)cc5c4cc3c2c1
[1]
  MIC: 0.5 µg/mL (≈ 1.14 µM)
[2]
  MIC: 0.5 µg/mL (≈ 1.14 µM)
[3]
  MIC: 2 µg/mL (≈ 4.56 µM)
[4]
  MIC: ≤ 0.25 µg/mL
[5]
  MIC: 8 µg/mL (≈ 18.2 µM)
[6]
  MIC: > 8 µg/mL

## CC/N=C(/NCCCOc1c2[nH]c3ccc(F)cc3c2cc2c1[nH]c1ccc(F)cc12)NCCCN(C)C
[1]
  MIC: ≤ 0.25 µg/mL
[2]
  MIC: ≤ 0.25 µg/mL
[3]
  MIC: 4 µg/mL (≈ 7.68 µM)
[4]
  MIC: 0.5 µg/mL (≈ 0.96 µM)
[5]
  MIC: 4 µg/mL (≈ 7.68 µM)
[6]
  MIC: 8 µg/mL (≈ 15.4 µM)

## Clc1ccc2[nH]c3c(OCC4CCCN4)c4[nH]c5ccc(Cl)cc5c4cc3c2c1 (stereo not drawn)
[1]
  MIC: 0.5 µg/mL (≈ 1.18 µM)
[2]
  MIC: 1 µg/mL (≈ 2.36 µM)
[3]
  MIC: 1 µg/mL (≈ 2.36 µM)
[4]
  MIC: 0.5 µg/mL (≈ 1.18 µM)
[5]
  MIC: 4 µg/mL (≈ 9.43 µM)
[6]
  MIC: 8 µg/mL (≈ 18.9 µM)

## C/N=C(\NC)NCCCOc1c2[nH]c3ccc(Cl)cc3c2cc2c1[nH]c1ccc(Cl)cc12
[1]
  MIC: 1 µg/mL (≈ 2.13 µM)
[2]
  MIC: 0.5 µg/mL (≈ 1.07 µM)
[3]
  MIC: 1 µg/mL (≈ 2.13 µM)
[4]
  MIC: 0.5 µg/mL (≈ 1.07 µM)
[5]
  MIC: 4 µg/mL (≈ 8.54 µM)
[6]
  MIC: 4 µg/mL (≈ 8.54 µM)

## c1ccc2c(Cc3c[nH]c4ccccc34)c[nH]c2c1
[1]
  MIC: 8 µg/mL (≈ 32.5 µM)
[2]
  MIC: > 64 µg/mL
[7]
  MIC: > 64 µg/mL
[8]
  MIC: > 64 µg/mL
[9]
  MIC: > 64 µg/mL
[10]
  MIC: 8 µg/mL (≈ 32.5 µM)

## C=C(c1c[nH]c2ccccc12)c1c[nH]c2ccccc12
[1]
  MIC: 16 µg/mL (≈ 61.9 µM)
[2]
  MIC: 8 µg/mL (≈ 31 µM)
[7]
  MIC: 8 µg/mL (≈ 31 µM)
[8]
  MIC: 8 µg/mL (≈ 31 µM)
[9]
  MIC: 4 µg/mL (≈ 15.5 µM)
[10]
  MIC: 2 µg/mL (≈ 7.74 µM)

## c1ccc2[nH]c(Cc3cc4ccccc4[nH]3)cc2c1
[1]
  MIC: 4 µg/mL (≈ 16.2 µM)
[2]
  MIC: 16 µg/mL (≈ 65 µM)
[7]
  MIC: 16 µg/mL (≈ 65 µM)
[8]
  MIC: 32 µg/mL (≈ 130 µM)
[9]
  MIC: 1 µg/mL (≈ 4.06 µM)
[10]
  MIC: 2 µg/mL (≈ 8.12 µM)

## CCOC(=O)c1ccc2[nH]cc(Cc3c(C)[nH]c4ccccc34)c2c1
[1]
  MIC: 4 µg/mL (≈ 12 µM)
[2]
  MIC: 8 µg/mL (≈ 24.1 µM)
[7]
  MIC: > 64 µg/mL
[8]
  MIC: > 64 µg/mL
[9]
  MIC: 2 µg/mL (≈ 6.02 µM)
[10]
  MIC: 8 µg/mL (≈ 24.1 µM)

## CCOC(=O)Oc1c2[nH]c3ccccc3c2cc2c1[nH]c1ccccc12
[1]
  MIC: ≤ 0.5 µg/mL
[2]
  MIC: 4 µg/mL (≈ 11.6 µM)
[7]
  MIC: 4 µg/mL (≈ 11.6 µM)
[8]
  MIC: 4 µg/mL (≈ 11.6 µM)
[9]
  MIC: 4 µg/mL (≈ 11.6 µM)
[10]
  MIC: 2 µg/mL (≈ 5.81 µM)
